Results as given in US20160090351A1, “INHIBITORS OF DEUBIQUITINATING PROTEASES” (BRANDEIS UNIVERSITY, priority 2013, published 2016).

Experiments:
[1] = tested on: DUBs; assay: decomposition of high molecular weight ubiquitinated proteins (HMW-Ub) in lysates of HEK 293T cells expressing HA-Ub; assay type: biochemical, human; settings: for DUB inhibitory activity, SAR in words: relative to C4 or parent analog
Protocol: FIG. 30 depicts data showing that diphenylcarbonates inhibit the decomposition of high molecular weight ubiquitinated proteins (HMW-Ub). Lysates were prepared from HEK 293T cells expressing HA-ubiquitin. Samples were incubated at 37° C. and reactions were quenched by the addition of reducing Laemmli buffer. HMW-Ub was assessed by SDS-PAGE and immunoblotting with anti-HA antibody. A. Representative immunoblots measuring the decomposition of HMW-Ub in lysates treated with either the DMSO vehicle, G5 (10 μM) or C4 (500 μM). B. Plot of the decomposition of HMW-Ub in lysates treated with DMSO and C4 (500 μM) (N=2; error bars denote range). C. Inhibition of HMW-Ub decomposition by diphenylcarbonates. Lysates were treated with diphenylcarbonates (50 μM). “-” denotes no treatment; D, 1% DMSO vehicle; IU1, an USP14-specific inhibitor; Bort, bortezomib, a proteasome inhibitor. D. Representative decomposition of HMW-Ub after 2 h incubation in the presence of varying concentrations of C4. See also FIG. 36. E. Quantitation of D. The values of EC50 reported in FIG. 29B are the average and S.E.M. of at least 3 independent experiments. See also FIG. 37 and FIG. 38.
Cells overexpressing HA-ubiquitin were prepared as above. Pellets were typically stored at −80° C. until required, at which time they were thawed on ice. Cell lysis was performed in lysis buffer using a Dounce homogenizer (10 strokes, with grinding, on ice: typical yield approx. 2-5 mg protein per transfected T75 flask for HEK 293T cells; 1-3 mg protein from a T75 flask for Cos-1). Crude lysate was centrifuged at 17000 g for 10 min at 4° C., after which time the concentration of the lysate was normalized to 1 mg/mL. The lysate was aliquoted into PCR strip tubes (typical volumes 75-50 μL) and compound in DMSO was added to this to give a final concentration of DMSO of 1%. Tubes were briefly centrifuged, overlaid with Chill-out wax (50 μL) and placed in a PCR machine at 37° C. with heated lid set to 37° C. Aliquots (9 μL) were removed at the stated times and immediately quenched in (2× final concentration) reducing (dithiothreitol) loading buffer and frozen (−19° C.) till required. Western blot analysis was carried out using standard methods. Samples were resolved by SDS-PAGE, transferred to PVDF [(0.45 μm) (Towbin buffer, tank apparatus, 90 V 1 hour, then overnight at 30 V, 4° C.)] then blocked in 15% milk in TBS-T HS (100 mM Tris HCl, pH 7.6, 500 mM NaCl, 0.5% […]) for at least 2 hours at RT. Afterward, membrane was washed in TBS-T HS then probed with anti HA-HRP (1:18000) for 1.33 hours at RT. Membrane was washed 3 times in TBS-T HS (15 mins) then once in TBS (15 mins) and exposed to ECL II and visualized using blue biofilm. […] When required, membranes were stripped in 100 mM glycine pH 4, 500 mM NaCl, 1% SDS, 5 mM BME, at 55° C. for 19 mins, then analyzed.
Lysates were prepared from HEK 293T cells expressing N-terminally HA-tagged ubiquitin (HA-Ub) to facilitate the observation of ubiquitinated proteins. In the absence of a DUB inhibitor, the HMW-Ub pool decomposed with a half-life of 34 min (FIG. 30A,B). […] Similar results were obtained in lysates prepared from Cos-1 cells expressing HA-Ub.

[2] = tested on: USP9x, USP19, USP7/8, USP28/15; assay: HA-Ub-VS activity profiling in cell lysates, USPs; assay type: biochemical, human; settings: for HA-Ub-VS labeling of USPs: HEK 293T lysates
Protocol: HA-ubiquitin vinylsulfone (HA-Ub-VS) irreversibly labels DUBs by modifying the catalytic cysteine residue Inhibition of the DUB prevents HA-Ub-VS labeling and the band is. […] The interaction with UCHL1/3 is reversible.
Lysate labeling assay on untransfected cells (1.5 mg/mL) was run with the stated concentration of inhibitor (or 1% DMSO control) for between 19-60 mins. After this time HA-Ub-VS (1.5-0.7 μM) was added and incubated for 19 mins. After this time reaction mixture (9 μL) was removed and quenched in 2× (final concentration) reducing loading buffer. For recovery experiments, a lysate of 6 mg/mL was treated with saturating compound C14 (250 μM) and incubated for 40 mins. Afterward, the lysate was diluted to 0.6 mg/mL (final concentration of inhibitor 25 μM) in lysis buffer (final volume 100 μL), then HA-Ub-VS was added. Aliquots (15 μL) were removed at the stated time (5-119 mins) and immediately quenched in 2× (final concentration) reducing loading buffer. For all HA-Ub-VS experiments samples in loading buffer were heated only to 37° C. prior to loading on a gel. This assay is highly susceptible to concentration of lysate and HA-Ub-VS. Cell experiments were carried out as above with some modifications. For Cos-1 and MCF-7 cells, after trypsinization, media with compound was added to give a final concentration of compound equal to that used in the assay. Cell pellets were lysed on an ice/salt bath with a temperature of −5° C. and lysate was centrifuged for only 5 mins.
HA-Ub-VS is an irreversible inhibitor of DUBs that is widely used in activity profiling. If the DUB inhibitors react to form a thiocarbonylated enzyme as proposed (FIG. 29B), then HA-Ub-VS labeling will be blocked. Treatment of HEK 293T lysates with HA-Ub-VS produced the characteristic pattern of protein bands at 250, 150-100, 45, 38 and 36 kDa, generally ascribed to USP9x (292 kDa), USP19 (146 kDa), USP7/8 (128 and 127 kDa, respectively), USP28/15 (122 and 112 kDa, respectively), UCH-L5 (38 kDa), UCH-L3 (26 kDa) and UCH-L1 (25 kDa) as depicted in FIG. 31.
The effect of diphenylcarbonates on HA-Ub-VS labeling was assessed to investigate the selectivity of DUB inhibition. Lysates were preincubated with diphenyl carbonates (75 μM), then treated with HA-Ub-VS (FIG. 31A). […] These C17 and C22-sensitive DUBs are most likely USP9x, USP19, USP7/8 and UCHL5, based on molecular weight (FIGS. 31B and 38). The identity of USP7 was confirmed by immunoblotting (FIG. 38F). […] Similar behavior was observed on Cos-1 cell lysates (FIG. 38B).

[3] = 75 μM, 30 minutes preincubation

NCc1ccc(OC(=O)Oc2ccc(Cl)cc2)cc1 [Compound C14, 4-(aminomethyl)phenyl(4-chlorophenol)carbonate]
increase of inhibitory potency relative to C4 (factor) [1]: approximately 10
HA-Ub-VS labeling of USPs [2, 3]: decreased HA-Ub-VS labeling of several USPs

NCc1ccc(OC(=O)Oc2ccc(Br)cc2)cc1 [Compound C15, 4-(aminomethyl)phenyl(4-bromophenyl)carbonate]
increase of inhibitory potency relative to C4 (factor) [1]: approximately 10
HA-Ub-VS labeling of USPs [2, 3]: decreased HA-Ub-VS labeling of several USPs

NCc1ccc(OC(=O)Oc2ccc3ccccc3c2)cc1 [Compound C17]
DUB inhibitory activity, SAR in words [1]: improved potency relative to C4
HA-Ub-VS labeling of USPs [2, 3]: decreased HA-Ub-VS labeling of several USPs
HA-Ub-VS labeling, dose response ([2]; at 12 μM): significantly inhibited the labeling of several high molecular weight proteins

NCc1ccc(OC(=O)Oc2cccc3ccccc23)cc1 [Compound C18]
DUB inhibitory activity, SAR in words [1]: improved potency relative to C4
HA-Ub-VS labeling of USPs [2, 3]: decreased HA-Ub-VS labeling of several USPs

O=C1/C(=C/c2ccc([N+](=O)[O-])cc2)CS(=O)(=O)C/C1=C\c1ccc([N+](=O)[O-])cc1 [Compound G5, reference compound]
stabilization of the HMW-Ub pool ([1]; HEK 293T HA-Ub lysates, 37° C.): stabilized the HMW-Ub pool
HA-Ub-VS labeling of USPs ([2]; preincubation with G5): decreased the labeling of all the USPs
